What was measured:
Format in all cases: in vivo
[1] = test system: Green Peach Aphid (Myzus Persicae); experiment: Green peach aphid test on dipped pepper plants; details: 120 h, pepper plant leaves dipped, after 5 days, read-out: mortality in comparison with untreated controls
Experimental: • The soybean bean cyst nematode culture was maintained in a greenhouse and soybean eggs and J2 larvae were obtained for testing by dislodging soybean cysts from the roots with a sieve. The cysts were broken to release the eggs and the eggs were maintained in water. The eggs hatched after 5-7 days at 28° C. To microtiter plates containing about 150 μg of compound, 80:20 acetone was added to each well and the solution was mixed to obtain the desired compound concentration. The nematode solution was added to the plate. The plates were then sealed and placed in an incubator at 27° C. and 50% (+/−2%) relative humidity. […] II Activity Against Insects II.1 Cotton Aphid (Aphis Gossypii) • The active compounds were formulated in 50:50 acetone:water and 100 ppm Kinetics surfactant. • Cotton plants at the cotyledon stage (one plant per pot) were infested by placing a heavily infested leaf from the main colony on top of each cotyledon. The aphids were allowed to transfer to the host plant overnight, and the leaf used to transfer the aphids was removed. The cotyledons were dipped in the test solution and allowed to dry. […] II.2 Green Peach Aphid (Myzus Persicae) • The active compounds were formulated in 50:50 acetone:water and 100 ppm Kinetic® surfactant. • Pepper plants in the 2nd leaf-pair stage (variety ‘California Wonder’) were infested with approximately 40 laboratory-reared aphids by placing infested leaf sections on top of the test plants. The leaf sections were removed after 24 hr. The leaves of the intact plants were dipped into gradient solutions of the test compound and allowed to dry. Test plants were maintained under fluorescent light (24 hour photoperiod) at about 25° C. and 20-40% relative humidity. […] II.3 Bean Aphid (Aphis Fabae) • The active compounds were formulated in 50:50 acetone:water and 100 ppm Kinetics surfactant. • Nasturtium plants grown in Metro mix in the 1st leaf-pair stage (variety ‘Mixed Jewle’) were infested with approximately 2-30 laboratory-reared aphids by placing infested cut plants on top of the test plants. The cut plants were removed after 24 hr. […]

[2] = test system: Cotton Aphid (Aphis Gossypii); experiment: Cotton aphid test on dipped cotton cotyledons; details: 120 h, after 5 days, read-out: mortality in comparison with untreated controls
Experimental: (§1) • The soybean bean cyst nematode culture was maintained in a greenhouse and soybean eggs and J2 larvae were obtained for testing by dislodging soybean cysts from the roots with a sieve. The cysts were broken to release the eggs and the eggs were maintained in water. The eggs hatched after 5-7 days at 28° C. To microtiter plates containing about 150 μg of compound, 80:20 acetone was added to each well and the solution was mixed to obtain the desired compound concentration. The nematode solution was added to the plate. The plates were then sealed and placed in an incubator at 27° C. and 50% (+/−2%) relative humidity. […] II Activity Against Insects II.1 Cotton Aphid (Aphis Gossypii) • The active compounds were formulated in 50:50 acetone:water and 100 ppm Kinetics surfactant. • Cotton plants at the cotyledon stage (one plant per pot) were infested by placing a heavily infested leaf from the main colony on top of each cotyledon. The aphids were allowed to transfer to the host plant overnight, and the leaf used to transfer the aphids was removed. The cotyledons were dipped in the test solution and allowed to dry. […]

[3] = test system: Root-Knot Nematode (Meloidogyne incognita); experiment: Root-knot nematode microtiter plate mortality test; details: after 72 hours, J2 nematodes, immobility regarded as mortality, read-out: mortality compared to untreated controls
Experimental: • Test compounds were prepared and formulated into aqueous formulations using acetone. The formulations were tested using root knot nematode (2nd instar) and soybean cyst nematode (2nd instar) as target species. I.1 Test Procedures for Root-Knot Nematode (Meloidogyne incognita): • Tomato plants (var. Bonny Best) were grown in the greenhouse in plastic tubs (4 to 6 plants per tub). The plants and soil (a 50:50 mixture of sand and “New Egypt” sandy loam) were infested with M. incognita J2 (to establish the “in-house” colony, M. incognita J2 were initially acquired from Auburn University). The plants were kept pruned and were used on an “as needed” basis. The tomato plants were kept in the cylinder containing hydroponic solution and aerated until the nematodes were no longer present in the solution (usually about 60 days). The cultures were checked daily by eluting a small volume (approximately 20 ml) from the bottom of a funnel attached to the cylinder into a small crystallizing dish and observed using a binocular dissecting scope. […] These were counted by putting 25 μl of the nematode solution into a well of an unused well of an assay plate. […] After 72 hours, the population mortality was read, whereby immobility of nematodes was regarded as mortality.

[4] = test system: Soybean Cyst Nematode (Heterodera Glycine); experiment: Soybean cyst nematode microtiter plate mortality test; details: after 72 hours, J2 larvae, immobility regarded as mortality, read-out: mortality compared to untreated controls
Experimental: I.2 Test Procedures for Soybean Cyst Nematode (Heterodera Glycine):
as §1

SMILES	mortality at 300 ppm [1]	mortality at 100 ppm [3]	further results
Cl/C(=N\N=Cc1cc2ccccc2o1)c1cccs1 [Example 1]	> 75%	–	–
CS/C(=N\N=Cc1cc2ccccc2o1)c1cccs1 [Example 2]	–	–	mortality at 300 ppm [2]: > 75%
C/C(=N\N=CC=Cc1ccccc1)c1cccs1 [Example 12]	> 75%	> 95%	–
CO/C(=N\N=Cc1cc2ccccc2o1)c1cccs1 [Example 4]	–	> 95%	–
C/C(=N\N=Cc1cc2ccccc2o1)c1cccs1 [Example 5]	> 75%	–	–
Cl/C(=N\N=CC=Cc1ccccc1)c1cccs1 [Example 11]	–	–	mortality at 100 ppm [4]: > 95%

Reference: patent US20080064730A1, “Azine Compounds for Combating Animal Pests” (BASF Aktiengesellschaft, priority 2004, published 2008)
